Tests used:
[1] = tested on: broad specificity β-galactosidase/β-glucosidase; assay: inhibition of human liver glycosidases: broad specificity β-galactosidase/β-glucosidase; type: biochemical
Source text: (§1) The effects of the ring contracted swainsonines (3) and (4) on the inhibition of 14 human liver glycosidases was studied by the assay methods described in Palamarczyk et al., Arch. Biochem. Biophys. 243, 35 (1985); Daniel et al., Glycoconjugate J. 6, 229 (1989) and Cenci di Bello et al., Biochem. J. 259, 855 (1989). […] Chem. Commun.

[2] = tested on: human liver α-mannosidases; assay: inhibition of human liver α-mannosidases; type: biochemical
Source text: as §1

glycosidases = assay: inhibition of glycosidases (general statement); type: biochemical; settings: compared with swainsonine
amyloglucosidase = settings: literature (Nash et al.); cited from earlier work
lysosomal α-mannosidase [3] = settings: literature; cited from earlier work
[4] = tested on: processing forms of α-mannosidase; settings: literature; cited from earlier work
lysosomal α-mannosidase [5] = target: T1, lysosomal α-mannosidase (Homo sapiens, UniProt O00754); assay: inhibition of human liver glycosidases: lysosomal α-mannosidase; type: biochemical
T1 construct: from tissue; host or cells: human liver
T1 sequence (O00754 50-601 limits assumed): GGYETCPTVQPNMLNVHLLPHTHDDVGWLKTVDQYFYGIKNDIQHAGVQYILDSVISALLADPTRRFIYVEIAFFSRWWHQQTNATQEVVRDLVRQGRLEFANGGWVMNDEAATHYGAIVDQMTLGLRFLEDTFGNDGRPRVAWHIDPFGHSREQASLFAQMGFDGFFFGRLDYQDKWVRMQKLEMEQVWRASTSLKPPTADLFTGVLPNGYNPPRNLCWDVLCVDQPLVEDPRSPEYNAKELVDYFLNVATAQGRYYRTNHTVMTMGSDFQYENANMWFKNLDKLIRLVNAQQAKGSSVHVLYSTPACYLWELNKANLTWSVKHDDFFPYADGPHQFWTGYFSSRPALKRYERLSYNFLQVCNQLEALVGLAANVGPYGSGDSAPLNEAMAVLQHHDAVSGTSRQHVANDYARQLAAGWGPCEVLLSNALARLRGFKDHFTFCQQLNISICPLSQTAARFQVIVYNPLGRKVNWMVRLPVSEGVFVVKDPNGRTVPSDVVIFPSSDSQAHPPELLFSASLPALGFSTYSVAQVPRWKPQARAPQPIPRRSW
T1 sequence (O00754 602-882 limits assumed): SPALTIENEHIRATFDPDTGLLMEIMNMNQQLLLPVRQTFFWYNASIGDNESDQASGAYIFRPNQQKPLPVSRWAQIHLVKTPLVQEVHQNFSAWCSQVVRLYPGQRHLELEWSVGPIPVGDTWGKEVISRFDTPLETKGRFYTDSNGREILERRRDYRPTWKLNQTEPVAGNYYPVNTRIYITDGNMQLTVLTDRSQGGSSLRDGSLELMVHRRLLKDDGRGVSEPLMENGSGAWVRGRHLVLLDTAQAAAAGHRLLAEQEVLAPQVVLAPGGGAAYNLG
T1 sequence (O00754 883-1011 limits assumed): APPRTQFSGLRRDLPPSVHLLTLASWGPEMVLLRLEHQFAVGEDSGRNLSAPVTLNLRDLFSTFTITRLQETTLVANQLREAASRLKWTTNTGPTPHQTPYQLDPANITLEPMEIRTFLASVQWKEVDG
Source text: as §1

yeast α-glucosidase = assay: inhibition of yeast α-glucosidase; type: biochemical
almond β-glucosidase = assay: inhibition of almond β-glucosidase; type: biochemical
snail β-mannosidase = assay: inhibition of snail β-mannosidase; type: biochemical
[6] = tested on: Golgi II processing mannosidase; assay: inhibition of human liver glycosidases: Golgi II mannosidase; type: biochemical; settings: compared with swainsonine
Source text: as §1

β-galactosidase = assay: inhibition of human liver glycosidases: β-galactosidase; type: biochemical; settings: 1 mM
Source text: as §1

bovine β-hexosaminidase = assay: inhibition of bovine β-hexosaminidase; type: biochemical
[7] = tested on: neutral processing mannosidase; assay: inhibition of human liver glycosidases: neutral processing mannosidase; type: biochemical; settings: compared with swainsonine
Source text: as §1

Jack bean α-mannosidase = target: T2, Jack bean α-mannosidase (Canavalia ensiformis, UniProt C0HJB3); assay: inhibition of Jack bean α-mannosidase; type: biochemical
T2 sequence (C0HJB3 1-981): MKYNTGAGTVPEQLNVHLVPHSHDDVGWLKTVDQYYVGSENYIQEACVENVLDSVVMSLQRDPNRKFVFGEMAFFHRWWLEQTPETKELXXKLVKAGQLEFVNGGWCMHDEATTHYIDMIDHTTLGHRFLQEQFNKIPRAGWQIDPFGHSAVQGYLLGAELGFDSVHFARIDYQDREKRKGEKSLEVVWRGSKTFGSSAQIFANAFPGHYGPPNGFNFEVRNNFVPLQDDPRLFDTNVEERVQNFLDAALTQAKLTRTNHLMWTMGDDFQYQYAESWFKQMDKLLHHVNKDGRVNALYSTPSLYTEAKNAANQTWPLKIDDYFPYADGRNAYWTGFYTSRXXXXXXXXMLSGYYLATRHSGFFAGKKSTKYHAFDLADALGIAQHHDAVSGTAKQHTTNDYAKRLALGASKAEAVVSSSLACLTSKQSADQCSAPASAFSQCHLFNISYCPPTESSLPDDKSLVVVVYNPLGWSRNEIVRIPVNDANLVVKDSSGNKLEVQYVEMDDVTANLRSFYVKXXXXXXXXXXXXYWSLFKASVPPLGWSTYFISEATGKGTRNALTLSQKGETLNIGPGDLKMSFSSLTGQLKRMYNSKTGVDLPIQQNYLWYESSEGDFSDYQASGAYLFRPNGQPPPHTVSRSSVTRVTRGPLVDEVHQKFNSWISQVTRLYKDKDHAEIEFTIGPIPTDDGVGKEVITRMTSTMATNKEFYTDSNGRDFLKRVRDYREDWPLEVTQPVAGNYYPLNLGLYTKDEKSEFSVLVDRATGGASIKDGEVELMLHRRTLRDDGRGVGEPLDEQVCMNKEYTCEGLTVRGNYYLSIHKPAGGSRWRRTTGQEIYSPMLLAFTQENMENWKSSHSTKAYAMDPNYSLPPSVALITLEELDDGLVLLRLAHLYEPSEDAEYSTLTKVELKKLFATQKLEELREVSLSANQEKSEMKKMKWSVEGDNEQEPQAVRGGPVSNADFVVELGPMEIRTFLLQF

α-fucosidase = assay: inhibition of human liver glycosidases: α-fucosidase; type: biochemical; settings: 1 mM
Source text: as §1

[8] = tested on: Aspergillus niger α-galactosidase; assay: inhibition of Aspergillus niger α-galactosidase; type: biochemical
[9] = tested on: bovine kidney α-fucosidase; assay: inhibition of bovine kidney α-fucosidase; type: biochemical
bovine β-galactosidase = assay: inhibition of bovine β-galactosidase; type: biochemical
[10] = target: green coffee bean α-galactosidase (Coffea arabica, UniProt Q42656); assay: inhibition of green coffee bean α-galactosidase; type: biochemical
green coffee bean α-galactosidase, sequence (Q42656 16-378): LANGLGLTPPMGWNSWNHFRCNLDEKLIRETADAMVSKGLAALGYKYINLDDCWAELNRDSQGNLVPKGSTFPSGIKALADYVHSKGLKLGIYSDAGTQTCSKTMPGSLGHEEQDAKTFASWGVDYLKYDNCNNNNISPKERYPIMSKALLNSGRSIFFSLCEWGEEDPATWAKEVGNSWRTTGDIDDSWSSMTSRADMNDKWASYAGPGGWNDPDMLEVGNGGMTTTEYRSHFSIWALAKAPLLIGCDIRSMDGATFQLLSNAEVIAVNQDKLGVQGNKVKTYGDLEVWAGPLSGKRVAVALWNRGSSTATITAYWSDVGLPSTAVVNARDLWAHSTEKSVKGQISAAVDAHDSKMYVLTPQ

## O[C@H]1[C@H]2[C@@H](O)CCN2C[C@H]1O [Compound 4, (1S,2R,7S,7aR)-1,2,7-Trihydroxypyrrolizidine]
[1]; concentration not given
  inhibition of broad specificity β-galactosidase/β-glucosidase: 40%
[2]
  inhibition of human liver α-mannosidases: does not inhibit
glycosidases
  glycosidase inhibitory activity: weaker such activity than swainsonine

## OC[C@@H]1[C@@H](O)[C@@H](O)[C@H]2[C@@H](O)CCN21 [Compound 5, 1,7a-diepialexine]
amyloglucosidase
  amyloglucosidase inhibition: powerful amyloglucosidase inhibitor

## O[C@H]1[C@H]2[C@H](O)CCCN2C[C@H]1O [Compound 1, (1S,2R,8R,8aR)-1,2,8-Trihydroxyindolizidine]
Lysosomal α-mannosidase [3]
  inhibition of lysosomal α-mannosidase: potent and specific inhibitor
[4]
  inhibition of some of the processing forms of α-mannosidase: potent and specific inhibitor
Lysosomal α-mannosidase [5]; lysosomal α-mannosidase, comparator
  Ki: 0.07 µM

## O[C@H]1[C@H]2[C@H](O)CCN2C[C@H]1O [Compound 3, (1S,2R,7R,7aR)-1,2,7-Trihydroxypyrrolizidine]
Yeast α-glucosidase
  inhibition of yeast α-glucosidase: no significant inhibition
Almond β-glucosidase
  inhibition of almond β-glucosidase: no significant inhibition
[1]; 1 mM
  inhibition of broad specificity β-galactosidase/β-glucosidase: 25%
Snail β-mannosidase
  inhibition of snail β-mannosidase: no significant inhibition
[6]
  inhibition of Golgi II processing mannosidase: less effective
Lysosomal α-mannosidase [5]; human liver lysosomal α-mannosidase, read-out: I50
  IC50: 1500 µM
β-galactosidase
  inhibition of β-galactosidase: 69%
Bovine β-hexosaminidase
  inhibition of bovine β-hexosaminidase: no significant inhibition
[7]
  inhibition of neutral processing mannosidase: less effective
Jack bean α-mannosidase
  Ki: 1700 µM
α-fucosidase
  inhibition of α-fucosidase: 33%
glycosidases
  glycosidase inhibitory activity: weaker such activity than swainsonine
[8]
  inhibition of Aspergillus niger α-galactosidase: no significant inhibition
[9]
  inhibition of bovine kidney α-fucosidase: no significant inhibition
Bovine β-galactosidase
  inhibition of bovine β-galactosidase: no significant inhibition
[10]
  inhibition of green coffee bean α-galactosidase: no significant inhibition

— patent US5023340A, “Pyrrolizioines and synthesis thereof” (Monsanto Company, priority 1989, dated 1991)
